Laboratory results published in patent US20100041612A1, “Fragments of the Glucagon-Like Peptide-1 and Uses Thereof” (priority 2005, published 2010).
Square brackets hold non-standard residues; d marks the D form. Peptide text beside a SMILES is read from it. Bip = N[C@@H](Cc1ccc(-c2ccccc2)cc1)C(=O)O

Legend:
[1] = test system: hyperactive human GLP-1 receptor variant; test: Peptide induced cAMP production (radioimmunoassay) in COS-7 cells transfected with hyperactive GLP-1 receptor variant; assay type: cell-based; conditions: for EC50: COS-7 cells, hyperactive human GLP-1 receptor variant
Text: The same peptides were used as described above, with the underivatized GLP-1 (7-20) amide represented in FIG. 1B with closed squares (“−bpa”) and the GLP-1 (7-20) carboxy-terminal tethered with a small molecule, biphenylalanine, represented by open squares (“+bpa”).

[2] = test system: Zucker diabetic fatty (ZDF) rats; test: Preclinical trial protocol in Zucker diabetic fatty (ZDF) rats: blood glucose and islet cell mass; assay type: in vivo, rat; conditions: versus saline; for blood glucose levels: 1 μg/kg/day to 100 mg/kg/day; for islet cell mass in pancreases: histology
Procedure: In this example, qualified animal models for diabetes are employed to examine the dose ranges of GLP-1 (7-20).
Treatment with GLP-1 (7-20) Animal Model. Zucker diabetic fatty (ZDF) rats are a well characterized type 2 diabetes animal model. (Suh Y H, et al. J Mol. Endocrinol. 2005 April; 34(2):299-315.)
Doses of GLP-1 (7-20) range from 1 μg/kg/day to 100 mg/kg/day.
Treatment. Cohorts are treated in 2 arms with 2-4 dose ranges of GLP-1 (7-20) amide and a placebo, at a compensated dose for animal size, metabolism and circulation. Arm 1: saline, Arm 2: GLP-1 (7-20) amide.
Study Assessment. Blood glucose levels are measured every week with a One Touch II glucose meter (Lifescan). Blood insulin levels are also measured. Rats are considered diabetic after 2 consecutive blood glucose measurements over 300 mg/dl. For histological analysis, pancreases are snap-frozen. Multiple 5-μm sections are stained with hematoxylin and eosin and scored blindly for islet cell mass as known in the art. […]
Animal Model. Zucker diabetic fatty (ZDF) rats are a well characterized type 2 diabetes animal model. (Suh Y H, et al. J Mol Endocrinol. 2005 April; 34(2):299-315.) […]
Treatment. Cohorts are treated in 6 arms with 2-4 dose ranges of each drug and a placebo, at a compensated dose for animal size, metabolism and circulation. Arm 1: saline, Arm 2: GLP-1 (7-20)−bpa; Arm 3: GLP-1 (7-20)+bpa; Arm 4: GLP-1 (7-20)−bpa plus pravastatin; Arm 5: GLP-1 (7-20)+bpa plus pravastatin; Arm 6: GLP-1 (7-20)−bpa plus GLP-1 (7-20)+bpa plus pravastatin.
Study Assessment. Blood glucose levels are measured every week with a One Touch II glucose meter (Lifescan). Blood insulin levels are also measured. Rats are considered diabetic after 2 consecutive measurements over 300 mg/dl. For histological analysis, pancreases are snap-frozen. Multiple 5-μm sections are stained with hematoxylin and eosin and scored blindly for islet cell mass as known in the art.

[3] = target: wild-type human GLP-1 receptor (Homo sapiens, UniProt P43220); test: Peptide induced cAMP production (radioimmunoassay) in COS-7 cells transfected with wild-type GLP-1 receptor
Chain of wild-type human GLP-1 receptor (P43220 24-463): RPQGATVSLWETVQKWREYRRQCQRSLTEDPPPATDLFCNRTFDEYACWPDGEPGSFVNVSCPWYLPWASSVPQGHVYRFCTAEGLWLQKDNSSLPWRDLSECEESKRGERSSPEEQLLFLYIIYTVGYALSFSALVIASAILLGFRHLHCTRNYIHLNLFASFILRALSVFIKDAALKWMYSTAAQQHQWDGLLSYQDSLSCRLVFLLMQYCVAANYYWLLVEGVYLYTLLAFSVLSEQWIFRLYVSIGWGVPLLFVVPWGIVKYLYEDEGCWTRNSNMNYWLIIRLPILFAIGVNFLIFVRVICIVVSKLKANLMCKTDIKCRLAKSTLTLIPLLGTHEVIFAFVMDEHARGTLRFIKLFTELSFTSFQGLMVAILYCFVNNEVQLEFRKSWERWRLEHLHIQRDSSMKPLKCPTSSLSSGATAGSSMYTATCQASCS
Procedure: COS-7 cells were transiently transfected with cDNA encoding the wild-type human GLP-1 receptor. Peptide induced cAMP production was measured by radioimmunoassay.

affinity for the GLP-1 receptor compared with full length GLP-1 ([3]; statement referring to Example 1) | SMILES | EC50 [1] | potency increase compared to the function of this peptide at the wild type receptor ([1]; hyperactive versus wild type receptor) | blood glucose levels [2] | islet cell mass in pancreases [2] | higher potency than GLP-1 (7-20) amide -bpa at the hyperactive receptor ([1]; hyperactive receptor, +bpa versus -bpa) | potency increase by carboxy-terminal tethering of biphenylalanine ([3]; versus underivatized GLP-1 (7-20) amide, wild-type receptor)
lower affinity than full length GLP-1 | CC(C)C[C@H](NC(=O)[C@H](Cc1ccc(O)cc1)NC(=O)[C@H](CO)NC(=O)[C@H](CO)NC(=O)[C@@H](NC(=O)[C@H](CC(=O)O)NC(=O)[C@H](CO)NC(=O)[C@@H](NC(=O)[C@H](Cc1ccccc1)NC(=O)[C@@H](NC(=O)CNC(=O)[C@H](CCC(=O)O)NC(=O)[C@H](C)NC(=O)[C@@H](N)Cc1c[nH]cn1)[C@@H](C)O)[C@@H](C)O)C(C)C)C(N)=O [GLP-1 (7-20) amide] (H-HAEGTFTSDVSSYL-NH2; N-terminus assumed) | 24 µM | 10 fold | pronounced reduction | increased | – | –
– | CC(C)C[C@H](NC(=O)[C@H](Cc1ccc(O)cc1)NC(=O)[C@H](CO)NC(=O)[C@H](CO)NC(=O)[C@@H](NC(=O)[C@H](CC(=O)O)NC(=O)[C@H](CO)NC(=O)[C@@H](NC(=O)[C@H](Cc1ccccc1)NC(=O)[C@@H](NC(=O)CNC(=O)[C@H](CCC(=O)O)NC(=O)[C@H](C)NC(=O)[C@@H](N)Cc1c[nH]cn1)[C@@H](C)O)[C@@H](C)O)C(C)C)C(=O)N[C@@H](Cc1ccc(-c2ccccc2)cc1)C(N)=O [GLP-1 (7-20)+bpa] (H-HAEGTFTSDVSSYL[Bip]-NH2; N-terminus and C-terminus assumed) | 2 µM | – | pronounced reduction | increased | 10 fold | 22 fold
